Among the data in patent publication US7879887B2, “α-amino acid derivatives and medicaments containing the same as an active ingredient” (Nissan Chemical Industries, Ltd., priority 2006, dated 2011) are IC50 values, retold here.

Assay [1] has as its system prostate cancer cell line DU 145. Description: Cell proliferation inhibitory activity, DU 145. The format is cell-based, human. Conditions: Homo sapiens, 96 h, cells counted 4 days later with Cell Counting Kit-8. The procedure, abridged: (§1)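 Cells grown under supplier-recommended conditions were exposed to serial concentrations of test compound at 37° C in 5% CO2. After 4 days, cell number was measured with Cell Counting Kit-8, and IC50 was derived with untreated wells as 0% and cell-free, compound-free wells as 100% inhibition.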

Assay [2] has as its system lung carcinoma cell line NCI-H460. Nature of the assay: Cell proliferation inhibitory activity, NCI-H460. The format is cell-based. The conditions noted are these: Homo sapiens, 96 h, cells counted 4 days later with Cell Counting Kit-8. Put shortly: as §1
For orientation: Formazan colour is commonly taken as a measure of viable cells.

Assay [3] has as its system breast cancer cell line MDA-MB-231. Nature of the assay: Cell proliferation inhibitory activity, MDA-MB-231. The format is cell-based. The conditions noted are these: Homo sapiens, 96 h, cells counted 4 days later with Cell Counting Kit-8. As to the method: (§2) Evaluations were carried out using colon carcinoma cell line SW620 (Cat. No. CCL-227), lung carcinoma cell line NCI-H460 (Cat. No. HTB-177), prostate cancer cell line DU 145 (Cat. No. HTB-81), breast cancer cell line MDA-MB-231 (Cat. No. HTB26) and leukemia cell line KG-1a (Cat. No. CCL-246.1) purchased from ATCC, pancreatic cancer cell line MIAPaCa-2 (Cat. No. CRL-1420) purchased from Dainippon Pharmaceutical, and ovarian cancer cell line IGROV1 received from the Netherland Cancer Institute. The cells were cultured under the conditions recommended by the supplier for each cell line, or with respect to IGROV1, according to the method described in Cancer Res. 59: 4559-4563, 1999. Cells suspended in media were added to solutions containing the test substances at various concentrations followed by culturing in a 5% CO2 incubator at 37° C. The numbers of cells were counted 4 days later with the Cell Counting Kit-8. IC50 values were calculated by assigning measured values in the case of not containing a test substance to an inhibition of 0%, and assigning measured values in the case of not containing a test substance or cells to an inhibition of 100%.

For the next assay, the target named is CDK2/Cyclin E complex (Homo sapiens, UniProt P24941). Nature of the assay: In vitro kinase assay, CDK2/Cyclin E complex. The format is biochemical. The conditions noted are these: recombinant protein (Upstate); read-out: CDK2/cyclinE IC50. As to the method: (§3) Inhibitory activity against Aurora A, CDK1/Cyclin B complex, CDK2/Cyclin E complex and CDK3/Cyclin E complex were measured by in vitro kinase assay using recombinant proteins.

In a further assay the target is T1, recombinant human βARK1 (Homo sapiens, UniProt P25098).
T1 construct: made in house; host or cells: Sf-9 insect cells (baculovirus, pBacPAK8)
T1 sequence (P25098 1-689): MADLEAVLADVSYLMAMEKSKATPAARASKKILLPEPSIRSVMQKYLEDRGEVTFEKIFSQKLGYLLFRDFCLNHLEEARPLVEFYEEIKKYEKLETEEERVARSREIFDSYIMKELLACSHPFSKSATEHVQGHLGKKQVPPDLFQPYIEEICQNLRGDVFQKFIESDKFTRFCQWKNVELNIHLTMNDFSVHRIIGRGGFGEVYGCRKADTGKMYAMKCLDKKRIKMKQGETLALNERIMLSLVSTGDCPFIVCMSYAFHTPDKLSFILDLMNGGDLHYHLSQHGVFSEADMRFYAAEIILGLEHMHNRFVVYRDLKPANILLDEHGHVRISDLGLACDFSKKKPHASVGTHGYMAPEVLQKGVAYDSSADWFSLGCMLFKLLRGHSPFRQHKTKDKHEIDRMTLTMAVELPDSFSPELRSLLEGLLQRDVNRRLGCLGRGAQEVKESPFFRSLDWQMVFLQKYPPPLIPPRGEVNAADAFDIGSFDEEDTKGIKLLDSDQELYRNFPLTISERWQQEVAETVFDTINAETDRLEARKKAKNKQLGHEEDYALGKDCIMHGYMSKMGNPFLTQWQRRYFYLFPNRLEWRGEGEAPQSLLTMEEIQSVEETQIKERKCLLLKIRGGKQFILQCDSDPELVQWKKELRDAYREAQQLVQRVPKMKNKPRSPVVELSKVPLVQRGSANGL
Nature of the assay: Inhibitory activity against βARK1 (33P phosphorylation of synthetic peptide). The format is biochemical. Conditions: recombinant human βARK1, 60 minutes at room temperature. As to the method: Human βARK1 was amplified by PCR based on the base sequence of human βARK1 mRNA registered in GenBank (Accession No. M80776) using a human leukocyte cDNA library (Gibco BRL Cat. No. 10421-022) as a template. The amplified cDNA fragment was inserted into a pBacPAK8 vector (Clontech) to construct a plasmid.
Recombinant human βARK1 was expressed using the BacPAK Baculovirus Expression System (Clontech, Cat. No. K1601-1). 1×10^6 Sf-9 cells were adhered to a 35 mm dish in 2.5 mL of TMN-FH Insect Medium containing 10 vol % FBS (Pharminogen, Cat. No. PM-21227M) and cultured overnight at 27° C. On the following day, the medium was removed and 500 ng of the above plasmid, BacPAK6 viral DNA cleaved with Bsu36I (5 μL) and 1.5 mL of the same medium mixed with 4 μL of Bacfectin were added followed by culturing for 5 hours, further adding 1.5 mL of medium and subsequently culturing for 5 days. […] The culture supernatant after 5 days was recovered and a plaque assay was carried out to isolate single plaques. These were then infected into Sf-9 cells and the resulting culture supernatant was designated as Passage 1 (1−3×10^11 pfu/mL). Passage 1 was added to 3×10^7 Sf-9 cells to a multiplicity of infection (MOI) of 0.1 (pfu/cell), suspension culturing was carried out for 5 days using a spinner flask, and the resulting culture supernatant was designated as Passage 2 (4×10^10 pfu/mL) and used as a viral liquid for large-volume expression.
Sf-9 cells at 3×10^9 cells/200 mL were infected by adding Passage 2 to an MOI of 100 followed by addition of medium to bring to a liquid volume of 2 L and further culturing for 3 days. After recovering the cells by centrifugation and washing three times with PBS, the cells were suspended in 100 mL of Lysis Buffer (20 mmol/L HEPES-HCl (pH 7.2), 5 mmol/L EDTA, 3 mmol/L phenylmethylsulfonyl fluoride (PMSF)). After lysing the cells by ultrasonic treatment at low temperature, the supernatant was recovered by centrifuging (45,000×g, 15 minutes) (sup1). NaCl was added to the resulting supernatant to a final concentration of 250 mmol/L followed by ultracentrifugation (300,000×g, 60 minutes) and using the subsequent supernatant as a crude cell extract (sup2).
Purification was carried out with reference to the literature (Benovic, J. L., Methods Enzymol. 1991; 200: 351-362; Kim, C. M. et al., Receptor 1993; 3: 39-55; Sohlemann, P. et al., FEBS Letters 1993; 324: 59-62). The crude cell extract was accurately brought to a volume of 400 mL with Buffer C (20 mmol/L HEPES-HCl (pH 7.2), 5 mmol/L EDTA, 0.02 vol % Triton X-100) followed by loading onto a 50 mL SP-Sepharose FF (Amersham Pharmacia Biotech) column equilibrated with Buffer C. […] ETA was carried out on each fraction using anti-GRK2 antibody (Santa-Cruz Cat. No. SC-562) and the positive fractions were collected (GRK2=βARK1). This was then diluted three-fold with Buffer C and loaded on a 5 mL HiTrap Heparin column (Amersham Pharmacia Biotech) column equilibrated with Buffer C. After washing the column with Wash Buffer (100 mmol/L NaCl, Buffer C), the column was eluted with an NaCl concentration gradient (100 to 600 mmol/L NaCl for 100 minutes, flow rate: 1 mL/min). The positive fractions as determined by ETA were collected and stored in a freezer at −80° C.
A synthetic peptide having an amino acid sequence of biotinated-[…] was used in accordance with a previous report (Chen, C. Y. et al., J. Biol. Chem. 1993; 268: 7825-7831). This synthetic peptide can also be synthesized with reference to known synthesis methods (for example, Chen, C. Y. et al., J. Biol. Chem. 1993; 268: 7825-7831, Biochemistry 1991; 30: 5118-5125). 2 μl of a DMSO solution in which the test compound was diluted to as to be […] the final concentration was dispensed into a 96-well plate (round bottom) (Falcon 351190) (final concentration: 4 vol % DMSO). […]

The subject of a further assay is leukemia cell line KG-1a. Description: Cell proliferation inhibitory activity, KG-1a. The format is cell-based. The conditions noted are these: Homo sapiens, 96 h, cells counted 4 days later with Cell Counting Kit-8. Put shortly:
as §1

The next assay concerns the target T2, CDK3/Cyclin E complex (Homo sapiens, UniProt Q00526).
T2 construct: purchased Upstate Inc. 14-487
Nature of the assay: In vitro kinase assay, CDK3/Cyclin E complex. The conditions noted are these: recombinant protein (Upstate); read-out: CDK3/cyclinE IC50. The format is biochemical. The protocol: as §3

Assay [4] deals with ovarian cancer cell line IGROV1. Nature of the assay: Cell proliferation inhibitory activity, IGROV1. The conditions noted are these: Homo sapiens, IGROV-1, 96 h, cells counted 4 days later with Cell Counting Kit-8. The format is cell-based. As to the method: as §2
The test system of assay [5] is colon carcinoma cell line SW620. Description: Cell proliferation inhibitory activity, SW620. The format is cell-based, human. Conditions: Homo sapiens, SW-620, 96 h, cells counted 4 days later with Cell Counting Kit-8. The procedure, abridged: as §1
The target in another assay is T3, Aurora A (Homo sapiens, UniProt O14965).
T3 construct: purchased Upstate Inc. 14-511
T3 sequence (O14965 1-403): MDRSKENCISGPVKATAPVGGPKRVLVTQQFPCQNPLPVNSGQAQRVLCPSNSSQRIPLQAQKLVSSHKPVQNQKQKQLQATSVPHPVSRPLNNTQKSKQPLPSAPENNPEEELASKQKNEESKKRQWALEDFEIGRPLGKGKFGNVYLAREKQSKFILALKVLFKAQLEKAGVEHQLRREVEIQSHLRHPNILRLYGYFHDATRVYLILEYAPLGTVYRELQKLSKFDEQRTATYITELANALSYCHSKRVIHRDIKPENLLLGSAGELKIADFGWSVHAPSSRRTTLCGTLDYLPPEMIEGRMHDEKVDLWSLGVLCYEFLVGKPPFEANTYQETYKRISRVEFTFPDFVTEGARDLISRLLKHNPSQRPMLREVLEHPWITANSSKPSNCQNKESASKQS
Description: In vitro kinase assay, Aurora A. The format is biochemical. Conditions: recombinant protein (Upstate). Put shortly:
(§4)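 Recombinant human enzymes assayed per supplier protocol. IC50 derived with compound-free wells set as 0% inhibition and compound- and enzyme-free wells as 100% inhibition.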

In another assay the target is T4, CDK1/Cyclin B complex (Homo sapiens, UniProt P06493).
T4 construct: purchased Upstate Inc. 14-450
Nature of the assay: In vitro kinase assay, CDK1/Cyclin B complex. The format is biochemical. The conditions noted are these: recombinant protein (Upstate). The procedure, abridged:
as §4

Assay [6] has as its system pancreatic cancer cell line MIAPaCa-2. Nature of the assay: Cell proliferation inhibitory activity, MIAPaCa-2. The format is cell-based. Conditions: Homo sapiens, MIA PaCa-2, 96 h; cells counted 4 days later, Cell Counting Kit-8. As to the method:
as §2

Each structure is given as a SMILES string. Where only a bound is given, the exact number is not on record here.

T4 sequence (P06493 whole entry): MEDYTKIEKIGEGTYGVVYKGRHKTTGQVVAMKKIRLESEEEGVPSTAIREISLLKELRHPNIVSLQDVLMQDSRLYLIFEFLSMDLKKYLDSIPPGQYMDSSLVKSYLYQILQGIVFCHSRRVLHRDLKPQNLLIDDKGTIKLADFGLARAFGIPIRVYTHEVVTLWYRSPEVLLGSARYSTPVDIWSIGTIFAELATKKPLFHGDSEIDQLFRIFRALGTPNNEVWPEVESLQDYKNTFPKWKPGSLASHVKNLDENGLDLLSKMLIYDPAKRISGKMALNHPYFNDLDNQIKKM
T4 sequence (P14635 whole entry partner): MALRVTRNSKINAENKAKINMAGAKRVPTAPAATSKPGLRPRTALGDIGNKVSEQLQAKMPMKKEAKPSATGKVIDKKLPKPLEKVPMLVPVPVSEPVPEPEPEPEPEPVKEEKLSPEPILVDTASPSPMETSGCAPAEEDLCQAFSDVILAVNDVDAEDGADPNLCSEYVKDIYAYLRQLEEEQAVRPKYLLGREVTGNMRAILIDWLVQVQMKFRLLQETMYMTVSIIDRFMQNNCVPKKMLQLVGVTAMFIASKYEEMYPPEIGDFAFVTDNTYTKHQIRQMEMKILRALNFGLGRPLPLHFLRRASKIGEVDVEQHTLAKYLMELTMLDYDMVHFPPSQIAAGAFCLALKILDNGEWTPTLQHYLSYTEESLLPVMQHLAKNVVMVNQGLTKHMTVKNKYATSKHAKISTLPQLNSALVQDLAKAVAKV
T2 sequence (Q00526 whole entry): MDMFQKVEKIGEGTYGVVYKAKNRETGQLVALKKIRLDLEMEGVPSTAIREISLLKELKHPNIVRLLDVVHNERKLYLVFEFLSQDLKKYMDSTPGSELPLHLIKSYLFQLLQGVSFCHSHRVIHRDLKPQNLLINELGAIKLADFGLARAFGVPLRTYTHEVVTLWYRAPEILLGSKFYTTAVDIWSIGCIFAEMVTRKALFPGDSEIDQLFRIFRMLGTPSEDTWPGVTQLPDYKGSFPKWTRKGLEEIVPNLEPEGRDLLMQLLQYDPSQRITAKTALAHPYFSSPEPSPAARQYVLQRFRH
T2 sequence (P24864 whole entry partner): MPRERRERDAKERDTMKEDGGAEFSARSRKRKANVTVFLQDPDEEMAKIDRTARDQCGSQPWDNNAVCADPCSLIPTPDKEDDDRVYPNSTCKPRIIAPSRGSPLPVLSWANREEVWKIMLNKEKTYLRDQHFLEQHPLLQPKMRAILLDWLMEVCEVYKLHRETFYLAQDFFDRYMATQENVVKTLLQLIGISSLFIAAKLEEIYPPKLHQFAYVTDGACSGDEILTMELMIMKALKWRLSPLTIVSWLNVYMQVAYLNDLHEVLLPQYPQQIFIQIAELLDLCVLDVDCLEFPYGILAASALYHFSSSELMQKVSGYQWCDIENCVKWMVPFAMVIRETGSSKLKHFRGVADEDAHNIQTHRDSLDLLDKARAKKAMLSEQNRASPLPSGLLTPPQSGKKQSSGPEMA

With `Cc1cc2[nH]ncc2c2sc(NC(=O)C3(Nc4ccc(Cl)cc4)CC3)nc12` [compound 127], the IC50 in assay [1] is 3000 nM; in assay [2], 3100 nM; in assay [3] it was 4300 nM; at CDK2/Cyclin E complex it was 128 nM; at recombinant human βARK1, 6.2 nM; in the assay on leukemia cell line KG-1a, under 100 nM. In addition, the IC50 amounted to 185 nM on CDK3/Cyclin E complex, 4900 nM in assay [4] and 700 nM in [5].
Turning to `CC(C)(Nc1ccc(F)c(C(N)=O)c1)C(=O)Nc1nc2c(C(F)(F)F)cc3[nH]ncc3c2s1` [compound 138], the IC50 in assay [1] stood at 2300 nM; on Aurora A, 263 nM; in [2], 1600 nM; at CDK1/Cyclin B complex, 53 nM; at CDK2/Cyclin E complex, 37 nM; on CDK3/Cyclin E complex, 12 nM. Further, the IC50 in assay [4] amounted to 4500 nM; in assay [6], 4300 nM; in assay [5], 2100 nM.
On to `CC(C)(Nc1ccc(Cl)c(OCC(O)CO)c1)C(=O)Nc1nc2c(C(F)(F)F)cc3[nH]ncc3c2s1` (stereo not drawn) [compound 99], for which the IC50 was 1700 nM in assay [1]; 142 nM on Aurora A; 4100 nM in assay [2]; 3000 nM in assay [3]; 140 nM at CDK1/Cyclin B complex; 20 nM on CDK2/Cyclin E complex. Moreover, the IC50 with leukemia cell line KG-1a stood at 300 nM; at CDK3/Cyclin E complex, 8.7 nM; in assay [4], 4400 nM; in assay [6] it was 4500 nM; in [5], 700 nM.
Turning to `CC(Nc1cccc(O)c1)C(=O)Nc1nc2ccc3[nH]ncc3c2s1` (stereo not drawn) [compound 23], the IC50 is 1600 nM in assay [1]; 47 nM on Aurora A; 1400 nM in assay [2]; 1600 nM in [3]; 150 nM at CDK1/Cyclin B complex; 30 nM on CDK2/Cyclin E complex. The IC50 with leukemia cell line KG-1a is under 100 nM; on CDK3/Cyclin E complex it was 47 nM; in assay [4], 1300 nM; in [6], 3500 nM; in assay [5] it was 500 nM.
`CC(C)(Nc1ccc(Cl)c(C(=O)NOCc2ccccc2)c1)C(=O)Nc1nc2c(C(F)(F)F)cc3[nH]ncc3c2s1` [compound 98]: the IC50 amounted to 4400 nM in [1]; 65 nM on Aurora A; 1800 nM in assay [2]; 2600 nM in [3]; 128 nM on CDK3/Cyclin E complex; 4000 nM in [6]. This molecule also registered an IC50 in assay [5] of 500 nM.
For the molecule `CNC(=O)c1cc(NC(C)(C)C(=O)Nc2nc3c(C(F)(F)F)cc4[nH]ncc4c3s2)ccc1F` [compound 137], the IC50 was 400 nM in [1]; 400 nM in [2]; 1900 nM in assay [3]; 39 nM at CDK1/Cyclin B complex; 40 nM on CDK2/Cyclin E complex; under 100 nM in the assay on leukemia cell line KG-1a. The IC50 on CDK3/Cyclin E complex stood at 12 nM; in assay [4], 3000 nM; in [6], 3100 nM; in assay [5], 200 nM.
